{CholTEG} = cholesteryl-TEG lipid
How the values were obtained:
[1] = system: U-87 human glioblastoma cells; assay: Delivery of siRNA to U-87 tumor cells (cell cy3-fluorescence); type: cell-based; details: U-87 cells, 40 pmoles siRNA, 24 hours after sonication, MI>1.3
Experimental: (§1) MATBIII rat mammary carcinoma and U-87 human glioblastoma cells were cultured in McCoy's 5A Medium (modified) (1×) (Invitrogen, Carlsbad, Calif., USA) and Eagle's Minimum Essential Medium (EMEM) (ATCC, Manassas, Va.) respectively. Both the media solutions were supplemented with 10% heat deactivated fetal bovine serum (FBS) (Fisher Scientific, Springfield, N.J.) and 1% penicillin-streptomycin (Sigma Aldrich, St Louis, Mo.). The cells were maintained at 37° C. in a humidified atmosphere with 5% CO2.
(§2) MATB-III and U-87 cells were grown in 10 mL capacity Opticell units (Nalge Nunc International, Rochester, N.Y.) to 90% confluence. The media in OptiCell was replaced with 10 mL fresh media containing 40 pmoles of either cy3-siRNA or cholesterol-siRNA. […] After incubation, the cells were imaged using a fluorescence microscope (Zeiss Axio Imager.Z1, Carl Zeiss). […] In the region of interest (ROI) in the fluorescent images, cell fluorescence was measured and the mean values of cell fluorescence were calculated. ImageJ was used to process the images and calculate fluorescence intensities.
(§3) The data are reported as mean+1.0 standard error (SE) for N=4. The statistical significance of the differences between the groups was evaluated using two-sample t-test and the statistical analyses were carried out using Minitab® 12 (Minitab Inc, State College, Pa. USA).

native HSA = native HSA (Homo sapiens, UniProt P02768)
Sequence of native HSA (P02768 25-609): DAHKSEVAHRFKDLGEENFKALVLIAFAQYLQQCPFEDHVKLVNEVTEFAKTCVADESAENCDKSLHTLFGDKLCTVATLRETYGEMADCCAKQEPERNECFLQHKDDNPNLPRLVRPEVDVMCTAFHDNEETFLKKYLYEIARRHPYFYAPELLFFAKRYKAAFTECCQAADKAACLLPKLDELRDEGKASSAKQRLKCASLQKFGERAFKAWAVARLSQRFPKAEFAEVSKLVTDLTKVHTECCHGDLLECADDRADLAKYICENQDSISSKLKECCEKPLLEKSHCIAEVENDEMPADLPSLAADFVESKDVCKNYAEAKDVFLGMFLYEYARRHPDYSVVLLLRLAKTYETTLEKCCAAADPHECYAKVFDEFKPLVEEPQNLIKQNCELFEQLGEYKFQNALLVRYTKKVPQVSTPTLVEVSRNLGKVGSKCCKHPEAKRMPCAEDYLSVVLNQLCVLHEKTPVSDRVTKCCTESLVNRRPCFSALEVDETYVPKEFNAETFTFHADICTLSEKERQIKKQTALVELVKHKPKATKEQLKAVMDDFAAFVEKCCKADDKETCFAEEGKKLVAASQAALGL
Experimental: Optison™ (GE Healthcare, Chalfont St. Giles, United Kingdom, 10 mg/ml albumin) was centrifuged; the top layer was discarded and the excess albumin solution in the bottom was used for the binding studies. Lyophilized human serum albumin (HSA) powder (Sigma Aldrich, St. Louis Mo.) was dissolved in 1× phosphate buffered saline (PBS) to make a stock solution of 10 mg/mL. Both Optison and native albumin solution dilutions were prepared with 1× PBS. Denatured HSA solution was prepared by heating native ESA solution to 80° C. for 20 minutes.
The stock solutions of cy3-siRNA and cy3-siRNA-cholesterol, 20 μM were prepared in RNAse free water and stored at −20° C. […]
All the reactions were loaded onto precast 6% nondenaturing polyacrylamide gels (Invitrogen, Carlsbad, Calif., USA). […] The gels containing either DNA, protein or both were imaged for cy3 fluorescence using a typhoon scanner (Typhoon™9410, GE Healthcare).
The fluorescence of Cy3 attached to siRNA can be visualized as distinct siRNA bands on the gel.
The fluorescence intensity of siRNA in each lane was estimated manually by drawing a box around the bands. […] Fluorescence intensities of bound siRNA over a wide range of albumin concentrations were calculated. Relative fluorescence, R was calculated as: R=(Fbound-Ffree)/Ffree (1) […]

[2] = system: MATBIII rat mammary carcinoma cells; assay: Delivery of siRNA to MATBIII cells, Optison/ultrasound versus RNAifect; type: cell-based; details: 24 hours
Experimental: as §1, §2, §3

denatured HSA = assay: Gel shift assay, binding of siRNA to denatured HSA; set-up: species or system human; details: same amount of denatured HSA, compared with native HSA and Optison
Excerpt: The reaction buffer was 1× PBS, pH 7.4.

Optison = target: T1, Optison (Homo sapiens, UniProt P02768); assay: Gel shift assay, binding of siRNA to Optison albumin solution
T1 construct: purchased GE Healthcare, Chalfont St. Giles, United Kingdom
T1 sequence (P02768 25-609): as above

## cholesterol-siRNA: siRNA for VEGF silencing, 5'-Cy3 labelled, cholesteryl TEG lipid at 3' of sense strand (SEQ ID NO: 1 and 2) (sense GCAUUUGUUUGUCCAAGAUUU; antisense AAAUCUUGGACAAACAAAUGC; sense: 3' {CholTEG}, sugars by position and backbone not given here; antisense: chemistry not given here; 5'-Cy3 label, further chemistry not fully specified)
[1]
  Increase in average cell fluorescence, Optison/ultrasound treated versus untreated cells: 53%
Native HSA
  Kd: 6.4 µM
Native HSA; 0 to 50 pmoles albumin
  Binding to native HSA in gel shift assay: bound
[2]
  Average cell fluorescence, Optison/ultrasound delivery versus RNAifect: no significant difference
Denatured HSA
  Binding to denatured HSA in gel shift assay: significantly decreased
Optison; 0 to 50 pmoles albumin
  Binding to Optison solution in gel shift assay: bound
Optison; binding to Optison, gel shift, non-linear fit, read-out: Dissociation constant, kd
  Kd: 7.16 µM
Optison; low albumin concentration, 0 to 15 μM
  Amount bound to Optison solution compared with native HSA: higher
